Data: patent US20170122958A1, “Enzymes Functional Probes” (University of Dundee, priority 2013, published 2017)

Experiments:
[1] = test system: Brd2(1) and (2) wild type and leucine to alanine, valine and isoleucine mutants; experiment: DSF thermal stabilization (FIG. 15); type: binding, human; conditions: result in words
Experimental: (§1) DSF assays were performed on a LightCycler®480 from Roche or a Mx3005P Real Time PCR machine from Stratagene. […] SYPRO®Orange from Invitrogen Molecular Probes® was used as a reporter dye to monitor the denaturing process of the proteins. Samples were assayed on a 96-well plate with final protein concentrations of 2 μM for the LightCycler®480 and 6 μM for Mx3005P. Compounds were added at a final concentration of 10 μM for the LightCycler®480 and 30 μM for Mx3005P, while the tetra acetylated histone peptide was added to a final concentration of 100 μM and 300 μM respectively. […] The temperature was raised with a step of 0.6° C. per minute from 37° C. to 95° C. with the LightCycler®480 collecting 39 measurements per ° C., and 1° C. per minute from 25° C. to 95° C. with Mx3005P, collecting fluorescence readings at the end of each interval. Each sample was run in triplicates.
(§2) Collected data was analysed by IGOR Pro 6, a scientific software tool from Wave Metrics, Inc. Analysis was done following the recommendations of Niesen et al.. Fluorescence intensity was plotted as a function of temperature, generating a sigmoidal curve described by a two-state transition from folded to unfolded protein. Curves were fitted by the following sigmoidal equation: […]
(§3) A1 and A2 are the values of minimum and maximum intensities, respectively, x0 is the inflection point and dx is the rate. Fitted curves were differentiated in IGOR Pro 6 and the maximum of the first derivative was identified using the same program. These values correspond to the inflection points of the transition curves and thus to the melting temperatures of the proteins (Tm).

Brd2(1) [2] = biological target: T1, Brd2(1) (Homo sapiens, UniProt P25440); experiment: ITC reverse titration of protein into compound; type: binding; conditions: for ΔH Brd2(1): ITC 30° C., 1% DMSO
T1 construct: Plasmids of the eight single BET bromodomain constructs Brd2(1), Brd2(2), Brd3(1), Brd3(2); His6 (N); made in house; host or cells: E. coli BL21(DE3)
T1 sequence (P25440 74-180 limits assumed): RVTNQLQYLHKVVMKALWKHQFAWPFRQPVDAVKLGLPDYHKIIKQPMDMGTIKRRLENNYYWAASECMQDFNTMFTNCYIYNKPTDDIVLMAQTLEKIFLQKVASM
Experimental: (§4) ITC experiments were carried out on a ITC200 instrument from MicroCal™ Experiments were conducted at 3 different temperatures 15° C., 25° C. and 30° C., while stirring at 1000 rpm. Buffers of proteins, peptide and compounds were matched to 20 mM HEPES pH 7.5 at 25° C. and 100 mM NaCl. Frozen protein was buffer exchanged as described for the DSF experiments. Each titration comprised 1 initial injection of 0.4 μl lasting 0.8 s, followed by 19 injections of 2 μl lasting 4 s each at 2 min intervals. The initial injection was discarded during data analysis. Standard and reverse titrations were conducted depending on the binding partners.
(§5) Reverse titrations were conducted to test the binding of the known ligands and the novel chemical probes to the wild types and the mutants. Experiments were carried out either at 25° C. or 30° C. […] In cases where the compound was solubilized in dimethyl sulfoxide, DMSO concentration was adjusted to 1% both in the syringe and in the cell.
(§6) All the data was fitted to a single binding site model using the Microcal LLC ITC200 Origin software provided by the manufacturer to yield enthalpies of binding (ΔH) and binding constants (Kas). Further thermodynamic parameters were calculated from these values (changes in entropy ΔS, changes in free energy AG and dissociation constants (Kds)).

Brd2(2) [3] = biological target: T2, Brd2(2) (Homo sapiens, UniProt P25440); experiment: ITC reverse titration of protein into compound; type: binding; conditions: ITC 30° C., 1% DMSO; for Kd: Kd Brd2(2)
T2 construct: Plasmids of the eight single BET bromodomain constructs Brd2(1), Brd2(2), Brd3(1), Brd3(2); His6 (N); made in house; host or cells: E. coli BL21(DE3)
T2 sequence (P25440 344-453 limits assumed): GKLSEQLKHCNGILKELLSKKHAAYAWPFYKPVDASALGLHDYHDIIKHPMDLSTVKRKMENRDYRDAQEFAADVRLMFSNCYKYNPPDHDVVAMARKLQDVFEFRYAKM
Experimental: as §4, §5, §6

Brd2(1)*(Leu110-Ala) [4] = biological target: T3, Brd2(1)*(Leu110-Ala) (Homo sapiens, UniProt P25440, L110A); experiment: DSF thermal shift; type: binding; set-up: Plasmids of the eight single BET bromodomain constructs Brd2(1), Brd2(2), Brd3(1), Brd3(2); His6 (N); made in house; host or cells: E. coli BL21(DE3); conditions: mutant
T3 sequence (P25440 74-180 L110A limits assumed): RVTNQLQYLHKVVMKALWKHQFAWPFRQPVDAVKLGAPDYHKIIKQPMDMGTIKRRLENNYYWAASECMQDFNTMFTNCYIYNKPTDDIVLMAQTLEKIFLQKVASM
Experimental: as §1, §2, §3

Brd2(2)*(Leu383-Ala) [5] = biological target: T4, Brd2(2)*(Leu383-Ala) (Homo sapiens, UniProt P25440, L383A); experiment: DSF thermal shift; type: binding; set-up: Plasmids of the eight single BET bromodomain constructs Brd2(1), Brd2(2), Brd3(1), Brd3(2); His6 (N); made in house; host or cells: E. coli BL21(DE3); conditions: mutant
T4 sequence (P25440 344-453 L383A limits assumed): as the sequence (P25440 344-453 limits assumed) above, with L40A counted along it
Experimental: as §1, §2, §3

Brd2(1)*(Leu110-Ala) [6] = biological target: T3, Brd2(1)*(Leu110-Ala); experiment: ITC reverse titration of protein into compound; type: binding; set-up: Plasmids of the eight single BET bromodomain constructs Brd2(1), Brd2(2), Brd3(1), Brd3(2), Brd4(1), Brd4(2), Brdt(1) and Brdt(2); His6 (N); made in house; host or cells: E. coli BL21(DE3); conditions: for ΔH Brd2(1)* (Leu110-Ala): ITC 30° C., 1% DMSO
Experimental: as §4, §5, §6

Brd2(2)*(Leu383-Ala) [7] = biological target: T4, Brd2(2)*(Leu383-Ala); experiment: ITC reverse titration of protein into compound; type: binding; set-up: Plasmids of the eight single BET bromodomain constructs Brd2(1), Brd2(2), Brd3(1), Brd3(2), Brd4(1), Brd4(2), Brdt(1) and Brdt(2); His6 (N); made in house; host or cells: E. coli BL21(DE3); conditions: ITC 30° C., 1% DMSO; for Kd: Kd Brd2(2)* (Leu383-Ala)
Experimental: as §4, §5, §6

Solubility observations = conditions: observation in words
Brd4(1) = biological target: T5, Brd4(1) (Homo sapiens, UniProt O60885); experiment: DSF thermal shift; type: binding; conditions: wild type
T5 construct: Plasmids of the eight single BET bromodomain constructs Brd2(1), Brd2(2), Brd3(1), Brd3(2), Brd4(1), Brd4(2), Brdt(1) and Brdt(2); His6 (N); made in house; host or cells: E. coli BL21(DE3)

Brd2(1) [8] = biological target: T1, Brd2(1); experiment: DSF thermal shift; type: binding; conditions: wild type
Brd2(2) [9] = biological target: T2, Brd2(2); experiment: DSF thermal shift; type: binding; conditions: wild type
brd4(1)L094A = biological target: T6, brd4(1)L094A (Homo sapiens, UniProt O60885, L94A); experiment: DSF thermal shift; type: binding; conditions: mutant
T6 construct: Plasmids of the eight single BET bromodomain constructs Brd2(1), Brd2(2), Brd3(1), Brd3(2), Brd4(1), Brd4(2), Brdt(1) and Brdt(2); His6 (N); made in house; host or cells: E. coli BL21(DE3)

Brd4(2) = biological target: T7, Brd4(2) (Homo sapiens, UniProt O60885); experiment: DSF thermal shift; type: binding; conditions: wild type
T7 construct: Plasmids of the eight single BET bromodomain constructs Brd2(1), Brd2(2), Brd3(1), Brd3(2), Brd4(1), Brd4(2), Brdt(1) and Brdt(2); His6 (N); made in house; host or cells: E. coli BL21(DE3)

brd4(2)L387A = biological target: T8, brd4(2)L387A (Homo sapiens, UniProt O60885, L387A); experiment: DSF thermal shift; type: binding; conditions: mutant
T8 construct: Plasmids of the eight single BET bromodomain constructs Brd2(1), Brd2(2), Brd3(1), Brd3(2), Brd4(1), Brd4(2), Brdt(1) and Brdt(2); His6 (N); made in house; host or cells: E. coli BL21(DE3)

Brd2(2)*(Val376Ala) = biological target: T9, Brd2(2)*(Val376Ala) (Homo sapiens, UniProt P25440, V376A); experiment: DSF thermal shift; type: binding; conditions: mutant
T9 construct: Plasmids of the eight single BET bromodomain constructs Brd2(1), Brd2(2), Brd3(1), Brd3(2); His6 (N); made in house; host or cells: E. coli BL21(DE3)
T9 sequence (P25440 344-453 V376A limits assumed): as the sequence (P25440 344-453 limits assumed) above, with V33A counted along it

Brd2(1)*(Val103-Ala) = biological target: T10, Brd2(1)*(Val103-Ala) (Homo sapiens, UniProt P25440, V103A); experiment: DSF thermal shift; type: binding; conditions: mutant
T10 construct: Plasmids of the eight single BET bromodomain constructs Brd2(1), Brd2(2), Brd3(1), Brd3(2); His6 (N); made in house; host or cells: E. coli BL21(DE3)
T10 sequence (P25440 74-180 V103A limits assumed): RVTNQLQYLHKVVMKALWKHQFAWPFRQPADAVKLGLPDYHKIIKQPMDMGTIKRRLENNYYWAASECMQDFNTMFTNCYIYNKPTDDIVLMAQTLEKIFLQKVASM

Row | Compound | Kd (Brd2(1) [2]) | ΔH Brd2(1) (Brd2(1) [2]) | ΔH Brd2(2) (Brd2(2) [3]) | Kd (Brd2(2) [3]) | ΔTm Brd2(1)*(Leu110-Ala) (Brd2(1)*(Leu110-Ala) [4]) | ΔTm Brd2(2)*(Leu383-Ala) (Brd2(2)*(Leu383-Ala) [5]) | Kd (Brd2(1)*(Leu110-Ala) [6]) | ΔH Brd2(1)* (Leu110-Ala) (Brd2(1)*(Leu110-Ala) [6]) | ΔH Brd2(2)* (Leu383-Ala) (Brd2(2)*(Leu383-Ala) [7]) | Kd (Brd2(2)*(Leu383-Ala) [7]) | Solubility (Solubility observations) | ΔTm Brd4(1) (Brd4(1)) | ΔTm Brd2(1) (Brd2(1) [8]) | ΔTm Brd2(2) (Brd2(2) [9]) | ΔTm Brd4(1)* (L094A) (brd4(1)L094A) | ΔTm Brd4(2) (Brd4(2)) | ΔTm Brd4(2)* (L387A) (brd4(2)L387A) | ΔTm Brd(2)*(Val376-Ala) (Brd2(2)*(Val376Ala)) | ΔTm Brd2(1)*(Val103-Ala) (Brd2(1)*(Val103-Ala)) | also measured
1 | CCC[C@@H](C(=O)OC)[C@@H]1N=C(c2ccc(Cl)cc2)c2cc(OC)ccc2-n2c(C)nnc21 (racemic) [Compound 12, (+−)-methyl (R)-2-((S)-6-(4-chlorophenyl)-8-methoxy-1-methyl-4H-benzo[f][1,2,4]triazolo[4,3-a][1,4]diazepin-4-yl)pentanoate] | 5880 ± 1210 nM | -11.49 ± 1.048 kcal/mol | -9.52 ± 0.5449 kcal/mol | 2390 ± 1480 nM | 4.0 ± 0.4 K | 5.0 ± 0.1 K | 400 ± 82.4 nM | −11160 ± 241.8 cal/mol | -7.095 ± 0.1069 kcal/mol | 265 ± 53.9 nM | lower than that for compounds with smaller bumps | 2.9 ± 0.7 K | 1.7 ± 0.2 K | 2.1 ± 0.1 K | 6.4 ± 0.8 K | 3.2 ± 0.7 K | 6.7 ± 0.2 K | – | – | Thermal stabilization of Brd2 mutants versus wild types (FIG. 15) [1]: smaller shifts
2 | COC(=O)[C@H](CC1CC1)[C@@H]1N=C(c2ccc(Cl)cc2)c2cc(OC)ccc2-n2c(C)nnc21 (racemic) [Compound 13, (+−)-methyl (R)-2-((S)-6-(4-chlorophenyl)-8-methoxy-1-methyl-4H-benzo[f][1,2,4]triazolo[4,3-a][1,4]diazepin-4-yl)-3-cyclopropylpropanoate] | 4310 ± 3050 nM | -3.402 ± 0.4335 kcal/mol | -2.089 ± 0.211 kcal/mol | 3320 ± 1860 nM | 3.7 ± 0.2 K | 5.3 ± 0.3 K | 360 ± 68.2 nM | −9662 ± 162.7 cal/mol | -7.868 ± 0.3365 kcal/mol | 667 ± 330 nM | lower than that for compounds with smaller bumps | 1.2 ± 0.6 K | 0.5 ± 0.3 K | 3.7 ± 0.6 K | 5.6 ± 0.3 K | 2.0 ± 1.0 K | 5.8 ± 0.1 K | – | – | –
3 | COC(=O)CC1N=C(c2ccc(Cl)cc2)c2cc(OC)cc(C)c2-n2c(C)nnc21 (centres unmarked) [Compound 4, Methyl 2-(6-(4-chlorophenyl)-8-methoxy-1,10-dimethyl-4H benzo[f][1,2,4]triazolo[4,3-a][1,4]diazepin-4-yl)acetate] | – | – | – | – | – | – | – | – | – | – | – | – | 0.7 ± 0.2 K | 4.0 ± 0.1 K | – | – | – | 1.2 ± 0.1 K | 0.5 ± 0.3 K | Thermal stabilisation brd2(1) (Brd2(1) [8]): 0.7 ± 0.2 °C; Thermal stabilisation brd2(2) (Brd2(2) [9]): 4.0 ± 0.1 °C; Thermal stabilisation brd2(2)V376A (Brd2(2)*(Val376Ala)): 1.2 ± 0.1 °C; Thermal stabilisation brd2(1)V103A (Brd2(1)*(Val103-Ala)): 0.5 ± 0.3 °C
4 | CCNC(=O)CC1N=C(c2ccc(Cl)cc2)c2cc(OC)cc(C)c2-n2c(C)nnc21 (centres unmarked) [Compound 19] | – | – | – | – | – | – | – | – | – | – | – | – | 0.5 ± 0.2 K | 3.8 ± 0.1 K | – | – | – | 1.3 ± 0.1 K | 0.4 ± 0.3 K | –
